Laboratory results reported in ChEMBL document CHEMBL1158199, “Constituents of Ardisia japonica and their in vitro anti-HIV activity” (J Nat Prod, 1996).
In brackets after ≈: the same amount, converted by molar mass.

Assays:
[1] = Inhibition of monoclonal antibody ADP358/HIV1 gp120 interaction at 4 mg/mL
[2] = Inhibition of monoclonal antibody ADP358/HIV1 gp120 interaction at 500 mg/mL
[3] = Selectivity index, ratio of […] for human […] cells
[4] = Inhibition of monoclonal antibody ADP358/HIV1 gp120 interaction at 100 mg/mL
[5] = Cytotoxicity against human C8166 cells by XTT assay; assay type: cell-based; conditions: read-out: TC50 (the source's name)
[6] = Inhibition of monoclonal antibody ADP358/HIV1 gp120 interaction at 0.8 mg/mL
[7] = Inhibition of monoclonal antibody ADP358/HIV1 gp120 interaction at 20 mg/mL
[8] = system: Human immunodeficiency virus 1; assay: Antiviral activity against HIV1 MN in human C8166 cells assessed as reduction of antigen gp120 production by ELISA; assay type: functional, organism-based; conditions: Human immunodeficiency virus 1, MN
[9] = system: Human immunodeficiency virus 1; assay: Antiviral activity against HIV1 3B in human C8166 cells assessed as neutralization of virus infectivity treated prior infection measured after 60 mins at 37 degC; assay type: functional
[10] = Inhibition of monoclonal antibody ADP358/HIV1 gp120 interaction at 3.2 mg/mL
[11] = Inhibition of monoclonal antibody ADP358/HIV1 gp120 interaction at 400 mg/mL
[12] = Inhibition of HIV1 recombinant gp120/sCD4 interaction by ELISA
[13] = Inhibition of monoclonal antibody ADP358/HIV1 gp120 interaction at 16 mg/mL
[14] = Inhibition of monoclonal antibody ADP358/HIV1 gp120 interaction at 80 mg/mL

With COc1c(O)cc2c(c1O)[C@@H]1O[C@H](CO)[C@@H](O)[C@H](O)[C@H]1OC2=O [BERGENIN] the inhibition [1] was 39%, the inhibition [2] was 92% and the “Selectivity Index” value [3] was greater than 25. The inhibition [4] was 84%, the CC50 [5] was greater than 1000 µg/mL and the inhibition [6] was 0%. The inhibition [7] was 62% and the EC50 [8] was 40 µg/mL (≈ 122 µM).
For COc1cc2c(c(OC)c1OC)[C@H]1O[C@@H](CO)[C@H](O)[C@@H](O)[C@@H]1OC2=O, the “Selectivity Index” value [3] was 1.25, the CC50 [5] was 250 µg/mL (≈ 702 µM) and the EC50 [8] was 200 µg/mL (≈ 561 µM).
With O=C1O[C@H]2[C@H](O)[C@@H](O)[C@H](CO)O[C@@H]2c2c1cc(O)c(O)c2O [NORBERGENIN] the Activity [9] was 99%, the “Selectivity Index” value [3] was greater than 25 and the CC50 [5] was greater than 500 µg/mL. The inhibition [10] was 33%, the inhibition [11] was 84% and the Activity [12] was “Dose-dependent effect”. It also gave an inhibition [13] of 57%, an inhibition [14] of 69% and an EC50 [8] of 20 µg/mL (≈ 63.6 µM).
